Assay results: patent publication US10966998B2, “Cancer therapy via a combination of epigenetic modulation and immune modulation” (The Johns Hopkins University, priority 2013, dated 2021)
Entries after “also recorded” stand apart in the source; their conditions may differ.

Legend:
NSCLC cell lines = assay: Genome-wide expression (Agilent arrays, GSEA) and DNA methylation of cell lines treated with AZA; assay type: cell-based, human
Description: For in vitro DNA methylation values, DNA was extracted from cell lines that were either untreated or treated with AZA at day 3, at the end of treatment, and day 10 (7 days post end of treatment) and analyzed by the Illumina Infinium HumanMethylation450 BeadChips (Illumina, Inc., San Diego, Calif., USA). Raw data were imported into R using the “methylumi” package from Bioconductor (22). Data points for probes with detection p-value >0.05 were masked as NA. Δ beta values (Δ beta value=beta value AZA−beta value Mock) were calculated and used to make boxplots. Heat maps were made similarly like those for the TCGA data using informative probes defined by the TCGA data.
For in vitro RNA extracted from cell lines treated with AZA, analyses were done at exactly the same time points as for DNA methylation above. Analyses from wild type colon cancer, HCT116 cells, and genetic knockout counterparts for DNA methyltransferases (DKO cells) were also performed. Expression microarrays were carried out using Agilent Human 4×44K expression arrays (Agilent Technologies, Santa Clara, Calif., USA, Cat#: G4112F). Within-array and between-array normalization was performed using Loess and Aquantile normalization, respectively (23). Median of the M values (M value Expression=log 2 [AZA/Mock] OR log 2 [DKO/HCT116]) was determined for multiple probes associated with the same gene.
For each of the eight lung cancer cell lines (H838, H1299, H358, H1270, A549, H460, HCC4006, HCC827) a ranked gene list was created (genes were sorted by decreasing M value). These eight ranked gene lists were entered in the GSEA tool (51-52) and the enrichment of both Kegg (53) and Reactome (54) pathways in these lists was calculated (default parameters). A gene set was selected when it was enriched in any of the eight cell lines (p value <0.05 and false discovery rate <0.25). The normalized enrichment scores (NES) for the gene sets in each cell line were used to create the heat maps. When a certain gene set was not significant in a cell line, it was assigned a NES of 0.
Expression and methylation data were analyzed to find genes whose re-expression was linked to demethylation after AZA treatment. Genes were selected based on a set of cut-offs, both for the methylation and expression values: A gene was considered to be re-expressed when at day 3 or day 10 the median M value of all the probes linked to that gene was higher than 0.5. Infinium probes were analyzed separately at their distances from the transcription start site for each gene examined. […] Only probes that were associated with a CpG island and that were located within 1000 bp upstream and 1000 bp downstream of the transcription start site were used in the analyses. The probes that passed these filters were validated using the TCGA methylation and expression data (see the definition of informative probes in the “Infinium DNA Methylation Data” section of Methods). […] To better understand the biological implications of the re-expressed genes, the gene lists were searched for transcription factors. Two human transcription factor lists obtained from Ravasi et al. (25) and Vaquerizas et al. (26, 27) were combined and the resulting list was matched to the lists of demethylated and re-expressed genes.
(§1) A previously validated pre-clinical model was employed to examine how AZA alters expression of key pathways in NSCLC cell lines.(29) Cells were treated in vitro with 500 nM AZA for 72 hours then harvested immediately after withdrawal of drug and again one week later for genome wide methylation and expression studies.

[1] = system: cell surface PD-L1 in NSCLC lines H838 and H1299; assay: Flow cytometry (FACS) of cell surface proteins after AZA treatment; assay type: cell-based, human; details: day 10
Method: Frozen cells were thawed in 37 degrees Celsius and washed once with flow-washing buffer. Aliquots of single-cell suspension were then stained with fluorescent-labeled antibodies for 15 mins at room temperature. Each sample was washed twice and re-suspended in flow-washing buffer and analyzed by FACSCalibur. The following antibodies were used: CD274 (12-5983-42 Ebiosciences), HLA abc(12-9983-42 Ebiosciences), CD276(331606 Biolegend), CD119(558934 BD), B2 microblogumin(551337BD), CD58(555921BD). Changes between AZA treated and mock cells were calculated using mean fluorescence intensities (MFI) and the formula log 2([(MFIantibody, treated)−(MFIisotype, treated)]/[(MFIantibody, mock)−(MFIisotype, mock)]).
as §1

[2] = system: epithelial cell lines and AML cell lines; assay: Gene expression in tumor-derived cell lines with AZA treatment (FIG. 2); assay type: cell-based

**Q.** Which results are given for `Nc1ncn([C@@H]2O[C@H](CO)[C@@H](O)[C@H]2O)c(=O)n1` [AZA, 5-azacytidine]?
**A.** immune-related pathways by Gene Set Enrichment Analysis (NSCLC cell lines; 500 nM AZA for 72 hours, NSCLC cell lines): up-regulation of multiple immune-related pathways; IRAK3 expression (NSCLC cell lines; H838 cells): up-regulated; number of genes 4-fold or more up-regulated (NSCLC cell lines; H2170 cells, day 10): 114 genes; IRF7 expression increase (NSCLC cell lines; LUSC cell line H2170): 9 fold; CD80 and CD86 expression (NSCLC cell lines; NSCLC cell lines): not altered; number of genes with high baseline promoter CpG island methylation, demethylation of 25% or more and expression increased 1.4-fold or greater (NSCLC cell lines; NSCLC cell lines): Approximately 300 genes; IFI27 expression (NSCLC cell lines; NSCLC lines): up-regulated; MAVS (antiapoptotic gene) expression (NSCLC cell lines; NSCLC lines): down-regulation; interferon-γ receptor (IFNGR1) and STAT gene (incl. STAT1) expression (NSCLC cell lines; NSCLC lines): up-regulation; transcripts of HLA Class I antigens, B2M, CD58, TAP1, PMSB9 and PSMB8 (NSCLC cell lines; NSCLC lines): upregulates; γ-interferon expression (NSCLC cell lines; NSCLC lines): not induced; antiapoptotic genes BCL2 and BIRC5 (SURVIVIN) expression (NSCLC cell lines; especially cell line H838): decreases; autophagy gene expression (NSCLC cell lines; especially cell line H838): increases; PD-L1 transcript level (NSCLC cell lines; several NSCLC cell lines): up-regulated; cell surface PD-L1 protein level [1]: up-regulated; also recorded: increased; gene expression changes with AZA treatment [2]: pro-inflammatory changes
